Measured values reported in patent US11331369B2, “Endoparasitic depsipeptides” (Zoetis Services LLC, priority 2017, dated 2022).

Each molecule was assayed on microfilariae of Dirofilaria immitis (assay: Dirofilaria immitis, Microfilaria (DiMF) In vitro Assay). Details: 72 h, read-out: DiMF Minimum Effective Dose (MED), approximately 72 hours incubation, microfilariae assessed for survival or paralysis.
Format: cell-based

| SMILES | minimal effective concentration [µM] |
| --- | --- |
| CC(C)C[C@H]1C(=O)O[C@H](Cc2ccc(Cn3cc(C(F)F)cn3)cc2)C(=O)N(C)[C@@H](CC(C)C)C(=O)O[C@H](C)C(=O)N(C)[C@@H](CC(C)C)C(=O)O[C@H](Cc2ccccc2)C(=O)N(C)[C@@H](CC(C)C)C(=O)O[C@H](C)C(=O)N1C [Example 2-18, (3S,6R,9S,12R,15S,18R,21S,24R)-6-benzyl-18-(4-((4-(difluoromethyl)-1H-pyrazol-1-yl)methyl)benzyl)-3,9,15,21-tetraisobutyl-4,10,12,16,22,24-hexamethyl-1,7,13,19-tetraoxa-4,10,16,22-tetraazacyclotetracosan-2,5,8,11,14,17,20,23-octaone] | 0.001 to 0.01 |
| CC(C)C[C@H]1C(=O)O[C@H](Cc2ccc(Cn3cc(CCO)cn3)cc2)C(=O)N(C)[C@@H](CC(C)C)C(=O)O[C@H](C)C(=O)N(C)[C@@H](CC(C)C)C(=O)O[C@H](Cc2ccccc2)C(=O)N(C)[C@@H](CC(C)C)C(=O)O[C@H](C)C(=O)N1C [Example 2-35, (3S,6R,9S,12R,15S,18R,21S,24R)-6-benzyl-18-(4-((4-(2-hydroxyethyl)-1H-pyrazol-1-yl)methyl)benzyl)-3,9,15,21-tetraisobutyl-4,10,12,16,22,24-hexamethyl-1,7,13,19-tetraoxa-4,10,16,22-tetraazacyclotetracosan-2,5,8,11,14,17,20,23-octaone] | 0.01 to 0.1 |
| CC(C)C[C@H]1C(=O)O[C@H](Cc2ccc(Cn3ccnc3-c3cncs3)cc2)C(=O)N(C)[C@@H](CC(C)C)C(=O)O[C@H](C)C(=O)N(C)[C@@H](CC(C)C)C(=O)O[C@H](Cc2ccc(Cn3ccnc3-c3cncs3)cc2)C(=O)N(C)[C@@H](CC(C)C)C(=O)O[C@H](C)C(=O)N1C [Example 6-18, (3S,6R,9S,12R,15S,18R,21S,24R)-3,9,15,21-tetraisobutyl-4,6,10,16,18,22-hexamethyl-12,24-bis(4-((2-(thiazol-5-yl)-1H-imidazol-1-yl)methyl)benzyl)-1,7,13,19-tetraoxa-4,10,16,22-tetraazacyclotetracosan-2,5,8,11,14,17,20,23-octaone] | 0.01 to 0.1 |
| CC(C)C[C@H]1C(=O)O[C@H](Cc2ccc(Cn3ccc(-c4ccncc4)n3)cc2)C(=O)N(C)[C@@H](CC(C)C)C(=O)O[C@H](C)C(=O)N(C)[C@@H](CC(C)C)C(=O)O[C@H](Cc2ccc(Cn3ccc(-c4ccncc4)n3)cc2)C(=O)N(C)[C@@H](CC(C)C)C(=O)O[C@H](C)C(=O)N1C [Example 1b-138, (3S,6R,9S,12R,15S,18R,21S,24R)-3,9,15,21-tetraisobutyl-4,6,10,16,18,22-hexamethyl-12,24-bis(4-((3-(pyridin-4-yl)-1H-pyrazol-1-yl)methyl)benzyl)-1,7,13,19-tetraoxa-4,10,16,22-tetraazacyclotetracosan-2,5,8,11,14,17,20,23-octaone] | 0.01 to 0.1 |
| CC(=O)Nc1cnn(Cc2ccc(C[C@H]3OC(=O)[C@H](CC(C)C)N(C)C(=O)[C@@H](C)OC(=O)[C@H](CC(C)C)N(C)C(=O)[C@@H](Cc4ccccc4)OC(=O)[C@H](CC(C)C)N(C)C(=O)[C@@H](C)OC(=O)[C@H](CC(C)C)N(C)C3=O)cc2)c1 [Example 2-31, N-(1-(4-(((2R,5S,8R,11S,14R,17S,20R,23S)-14-benzyl-5,11,17,23-tetraisobutyl-4,8,10,16,20,22-hexamethyl-3,6,9,12,15,18,21,24-octaoxo-1,7,13,19-tetraoxa-4,10,16,22-tetraazacyclotetracosan-2-yl)methyl)benzyl)-1H-pyrazol-4-yl)acetamide] | 0.01 to 0.1 |
| CC(C)C[C@H]1C(=O)O[C@H](Cc2ccc(Cn3cc(S(=O)(=O)N4CCC4)cn3)cc2)C(=O)N(C)[C@@H](CC(C)C)C(=O)O[C@H](C)C(=O)N(C)[C@@H](CC(C)C)C(=O)O[C@H](Cc2ccccc2)C(=O)N(C)[C@@H](CC(C)C)C(=O)O[C@H](C)C(=O)N1C [Example 2-27, (3S,6R,9S,12R,15S,18R,21S,24R)-6-(4-((4-(azetidin-1-ylsulfonyl)-1H-pyrazol-1-yl)methyl)benzyl)-18-benzyl-3,9,15,21-tetraisobutyl-4,10,12,16,22,24-hexamethyl-1,7,13,19-tetraoxa-4,10,16,22-tetraazacyclotetracosan-2,5,8,11,14,17,20,23-octaone] | 0.01 to 0.1 |
| CC(C)C[C@H]1C(=O)O[C@H](Cc2ccc(Cn3cc(OCCN)cn3)cc2)C(=O)N(C)[C@@H](CC(C)C)C(=O)O[C@H](C)C(=O)N(C)[C@@H](CC(C)C)C(=O)O[C@H](Cc2ccc(Cn3cc(OCCN)cn3)cc2)C(=O)N(C)[C@@H](CC(C)C)C(=O)O[C@H](C)C(=O)N1C [Example 1b-185, (3S,6R,9S,12R,15S,18R,21S,24R)-6,18-bis(4-((4-(2-aminoethoxy)-1H-pyrazol-1-yl)methyl)benzyl)-3,9,15,21-tetraisobutyl-4,10,12,16,22,24-hexamethyl-1,7,13,19-tetraoxa-4,10,16,22-tetraazacyclotetracosan-2,5,8,11,14,17,20,23-octaone] | 0.01 to 0.1 |
| CC(C)C[C@H]1C(=O)O[C@H](Cc2cccc(Cn3cc(-c4ccccn4)cn3)c2)C(=O)N(C)[C@@H](CC(C)C)C(=O)O[C@H](C)C(=O)N(C)[C@@H](CC(C)C)C(=O)O[C@H](Cc2cccc(Cn3cc(-c4ccccn4)cn3)c2)C(=O)N(C)[C@@H](CC(C)C)C(=O)O[C@H](C)C(=O)N1C [Example 4-16, (3S,6R,9S,12R,15S,18R,21S,24R)-3,9,15,21-tetraisobutyl-4,6,10,16,18,22-hexamethyl-12,24-bis(3-((4-(pyridin-2-yl)-1H-pyrazol-1-yl)methyl)benzyl)-1,7,13,19-tetraoxa-4,10,16,22-tetraazacyclotetracosan-2,5,8,11,14,17,20,23-octaone] | 0.01 to 0.1 |
| CC(C)C[C@H]1C(=O)O[C@H](Cc2ccc(Cn3cc(-c4ccccc4)cn3)cc2)C(=O)N(C)[C@@H](CC(C)C)C(=O)O[C@H](C)C(=O)N(C)[C@@H](CC(C)C)C(=O)O[C@H](Cc2ccccc2)C(=O)N(C)[C@@H](CC(C)C)C(=O)O[C@H](C)C(=O)N1C [Example 2-3, (3S,6R,9S,12R,15S,18R,21S,24R)-6-benzyl-3,9,15,21-tetraisobutyl-4,10,12,16,22,24-hexamethyl-18-[[4-[(4-phenylpyrazol-1-yl)methyl]phenyl]methyl]-1,7,13,19-tetraoxa-4,10,16,22-tetrazacyclotetracosane-2,5,8,11,14,17,20,23-octaone] | 0.01 to 0.1 |
| Cc1cnn(Cc2ccc(C[C@H]3OC(=O)[C@H](CC(C)C)N(C)C(=O)[C@@H](C)OC(=O)[C@H](CC(C)C)N(C)C(=O)[C@@H](Cc4ccc(Cn5cc(Br)cn5)cc4)OC(=O)[C@H](CC(C)C)N(C)C(=O)[C@@H](C)OC(=O)[C@H](CC(C)C)N(C)C3=O)cc2)c1 [Example 1a-24, (3S,6R,9S,12R,15S,18R,21S,24R)-6-(4-((4-bromo-1H-pyrazol-1-yl)methyl)benzyl)-3,9,15,21-tetraisobutyl-4,10,12,16,22,24-hexamethyl-18-(4-((4-methyl-1H-pyrazol-1-yl)methyl)benzyl)-1,7,13,19-tetraoxa-4,10,16,22-tetraazacyclotetracosan-2,5,8,11,14,17,20,23-octaone] | 0.001 to 0.01 |
| CC(=O)NCc1cnn(Cc2ccc(C[C@H]3OC(=O)[C@H](CC(C)C)N(C)C(=O)[C@@H](C)OC(=O)[C@H](CC(C)C)N(C)C(=O)[C@@H](Cc4ccccc4)OC(=O)[C@H](CC(C)C)N(C)C(=O)[C@@H](C)OC(=O)[C@H](CC(C)C)N(C)C3=O)cc2)c1 [Example 2-52, N-((1-(4-(((2R,5S,8R,11S,14R,17S,20R,23S)-14-benzyl-5,11,17,23-tetraisobutyl-4,8,10,16,20,22-hexamethyl-3,6,9,12,15,18,21,24-octaoxo-1,7,13,19-tetraoxa-4,10,16,22-tetraazacyclotetracosan-2-yl)methyl)benzyl)-1H-pyrazol-4-yl)methyl)acetamide] | 0.01 to 0.1 |
| CCc1cnn(Cc2ccc(C[C@H]3OC(=O)[C@H](CC(C)C)N(C)C(=O)[C@@H](C)OC(=O)[C@H](CC(C)C)N(C)C(=O)[C@@H](Cc4ccccc4)OC(=O)[C@H](CC(C)C)N(C)C(=O)[C@@H](C)OC(=O)[C@H](CC(C)C)N(C)C3=O)cc2)c1 [Example 2-9, (3S,6R,9S,12R,15S,18R,21S,24R)-6-benzyl-18-[[4-[(4-ethylpyrazol-1-yl)methyl]phenyl]methyl]-3,9,15,21-tetraisobutyl-4,10,12,16,22,24-hexamethyl-1,7,13,19-tetraoxa-4,10,16,22-tetrazacyclotetracosane-2,5,8,11,14,17,20,23-octaone] | 0.01 to 0.1 |
| CC(C)C[C@H]1C(=O)O[C@H](Cc2cccc(Cn3ccnc3C3CC3)c2)C(=O)N(C)[C@@H](CC(C)C)C(=O)O[C@H](C)C(=O)N(C)[C@@H](CC(C)C)C(=O)O[C@H](Cc2ccc(Cn3ccnc3C3CC3)cc2)C(=O)N(C)[C@@H](CC(C)C)C(=O)O[C@H](C)C(=O)N1C [Example 7-7, (3S,6R,9S,12R,15S,18R,21S,24R)-6-[[3-[(2-cyclopropylimidazol-1-yl)methyl]phenyl]methyl]-18-[[4-[(2-cyclopropylimidazol-1-yl)methyl]phenyl]methyl]-3,9,15,21-tetraisobutyl-4,10,12,16,22,24-hexamethyl-1,7,13,19-tetraoxa-4,10,16,22-tetrazacyclotetracosane-2,5,8,11,14,17,20,23-octaone] | 0.01 to 0.1 |
| Cc1ncn(Cc2ccc(C[C@H]3OC(=O)[C@H](CC(C)C)N(C)C(=O)[C@@H](C)OC(=O)[C@H](CC(C)C)N(C)C(=O)[C@@H](Cc4ccccc4)OC(=O)[C@H](CC(C)C)N(C)C(=O)[C@@H](C)OC(=O)[C@H](CC(C)C)N(C)C3=O)cc2)c1C [Example 8-11, (3S,6R,9S,12R,15S,18R,21S,24R)-6-benzyl-18-(4-((4,5-dimethyl-1H-imidazol-1-yl)methyl)benzyl)-3,9,15,21-tetraisobutyl-4,10,12,16,22,24-hexamethyl-1,7,13,19-tetraoxa-4,10,16,22-tetraazacyclotetracosan-2,5,8,11,14,17,20,23-octaone] | 0.01 to 0.1 |
